In patent US20250353857A1, “COMPOUND ACTIVE AS INHIBITOR OF COLONY STIMULATION FACTOR-1 RECEPTOR (CSF-1 R)” (priority 2022, published 2025):

How the values were obtained:
[1] = target: CSF1R (Homo sapiens (Human), UniProt P07333); test: CSF1R enzymatic inhibitory assay (Invitrogen Z'-LYTE, FRET); type: biochemical; conditions: Z'-LYTE assay, ATP concentration equal to Km, average of at least 2 titration curves; read-out: CSF1R (IC50);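 further: kinase phosphorylates a tyrosine on a coumarin/fluorescein FRET peptide, a protease cuts peptide left unphosphorylated, inhibition quantified from the donor-to-acceptor emission ratio with excitation at 400 nm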
[2] = tested on: P-MAPK (ERK1/2) in CSF-1 stimulated bone-marrow derived macrophages; test: Effect of CSF1R inhibitors on MAPK signaling in mouse bone-marrow derived macrophages; type: cell-based; conditions: fold change relative to PLX3397 (IC50 inhibitor/IC50 PLX3397), P-MAPK/total MAPK, 10 ng/mL CSF-1

Sequence of CSF1R (P07333 20-972): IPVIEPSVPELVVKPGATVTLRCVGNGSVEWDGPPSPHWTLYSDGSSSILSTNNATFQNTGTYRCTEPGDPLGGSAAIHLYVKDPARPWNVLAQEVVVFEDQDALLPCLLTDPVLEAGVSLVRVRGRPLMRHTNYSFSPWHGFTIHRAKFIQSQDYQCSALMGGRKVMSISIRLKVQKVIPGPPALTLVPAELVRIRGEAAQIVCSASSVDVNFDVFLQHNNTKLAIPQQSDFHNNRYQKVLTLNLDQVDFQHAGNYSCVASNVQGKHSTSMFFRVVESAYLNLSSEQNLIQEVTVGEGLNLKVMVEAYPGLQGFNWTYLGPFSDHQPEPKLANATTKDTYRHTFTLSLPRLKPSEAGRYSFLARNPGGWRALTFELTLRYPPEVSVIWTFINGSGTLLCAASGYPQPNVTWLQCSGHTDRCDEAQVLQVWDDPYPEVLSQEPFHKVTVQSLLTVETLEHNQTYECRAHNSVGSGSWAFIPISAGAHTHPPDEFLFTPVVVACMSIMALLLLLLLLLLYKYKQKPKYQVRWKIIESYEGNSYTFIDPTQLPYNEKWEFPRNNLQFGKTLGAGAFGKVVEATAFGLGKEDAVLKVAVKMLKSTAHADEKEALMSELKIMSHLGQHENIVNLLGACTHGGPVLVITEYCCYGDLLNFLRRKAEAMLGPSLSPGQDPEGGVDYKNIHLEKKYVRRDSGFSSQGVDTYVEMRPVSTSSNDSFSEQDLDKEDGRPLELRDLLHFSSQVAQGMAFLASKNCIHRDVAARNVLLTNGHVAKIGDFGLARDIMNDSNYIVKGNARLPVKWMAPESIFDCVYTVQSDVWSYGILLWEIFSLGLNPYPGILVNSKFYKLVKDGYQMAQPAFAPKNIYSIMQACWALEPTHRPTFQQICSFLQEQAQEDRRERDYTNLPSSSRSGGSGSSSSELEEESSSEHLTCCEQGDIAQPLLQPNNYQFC

| SMILES | IC50 [1] | MAPK (fold) [2] |
| --- | --- | --- |
| CN1CCCC(CN(C)c2ncnc3[nH]c(-c4ccc(CO)cc4)nc23)C1 (stereo not shown) [TIA04-063, N-Methyl-N-(1-methylpiperidin-3-ylmethyl)-8-(4-(hydroxymethyl)phenyl)-9H-purin-6-amine] | 53 ± 4 nM | >3 fold |
| CC(C)C1CCCN1c1ncnc2[nH]c(-c3ccc(CO)cc3)nc12 (stereo not shown) [TIA04-065] | 5.4 ± 2.4 nM | >3 fold |
| CN(CC1CCCO1)c1ncnc2[nH]c(-c3ccc(CO)cc3)nc12 (stereo not shown) [TIA04-093, N-Methyl-N-(tetrahydrofuran-2-ylmethyl)-8-(4-(hydroxymethyl)phenyl)-9H-purin-6-amine] | 2.6 ± 0.3 nM | >3 fold |
| CN(CC1CCCCO1)c1ncnc2[nH]c(-c3ccc(CO)cc3)nc12 (stereo not shown) [TIA04-095, N-Methyl-N-(oxan-2-ylmethyl)-8-(4-(hydroxymethyl)phenyl)-9H-purin-6-amine] | 1.3 ± 0.2 nM | >3 fold |
| CN(Cc1ccccc1)c1ncnc2[nH]c(N3CCOCC3)nc12 [TIA04-105, N-Benzyl-N-methyl-8-morpholino-9H-purin-6-amine] | 16 ± 4 nM | >3 fold |
| CN(CC1CCCCC1)c1ncnc2[nH]c(-c3ccc(CN4CCOCC4)cc3)nc12 [TIA04-117, N-(Cyclohexylmethyl)-N-methyl-8-(4-(4-morpholinomethyl)phenyl)-9H-purin-6-amine] | 1.2 ± 0.2 nM | 1.2 fold |
| CN(CC1CCOCC1)c1ncnc2[nH]c(-c3ccc(CCO)cc3)nc12 [TIA05-014, N-Methyl-N-(oxan-4-ylmethyl)-8-(4-(2-hydroxyethyl)phenyl)-9H-purin-6-amine] | 0.2 nM | 1.7 fold |
| CN(CC1CCCCC1)c1ncnc2[nH]c(-c3ccc(CO)cc3)cc12 [TIA05-090, (4-(4-((Cyclohexylmethyl)(methyl)amino)-7H-pyrrolo[2,3-d]pyrimidin-6-yl)phenyl)methanol] | 0.3 nM | 1.0 fold |
